Source: patent US20170158776A1, “TREATMENT OF LUNG CANCER USING A COMBINATION OF AN ANTI-PD-1 ANTIBODY AND ANOTHER ANTI-CANCER AGENT” (Bristol-Myers Squibb Company, priority 2014, published 2017)
Several values for one entry are separate records, joined by “and”; a condition that tells them apart may be missing. Identical values can stand only once.

What was measured:
[1] = tested on: patients with NSCLC; test: Nivolumab monotherapy arm (Arm F), safety; assay type: in vivo, human; settings: 3 mg/kg q2w
Method: One arm was developed to test the effect of nivolumab monotherapy on NSCLC. Patients were treated with 3 mg/kg nivolumab (nivo) q2w (once every 2 weeks).

[2] = target: T1, PD-1 (Homo sapiens, UniProt Q15116); settings: 15 subjects, 0.3 mg/kg to 10 mg/kg, across all doses, cited from earlier work
T1 construct: Receptor-occupancy data from 15 subjects who received 0.3 mg/kg to 10 mg/kg dosing with nivolumab; endogenous in cells
T1 sequence (Q15116 25-288): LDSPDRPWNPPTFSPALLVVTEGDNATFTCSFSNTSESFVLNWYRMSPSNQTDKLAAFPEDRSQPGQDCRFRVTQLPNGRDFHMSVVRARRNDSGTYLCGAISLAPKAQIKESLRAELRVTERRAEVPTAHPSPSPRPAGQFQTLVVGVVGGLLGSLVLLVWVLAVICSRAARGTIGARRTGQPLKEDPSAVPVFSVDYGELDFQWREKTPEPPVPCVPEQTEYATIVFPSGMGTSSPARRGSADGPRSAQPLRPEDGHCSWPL

[3] = tested on: heavily pretreated patients with advanced NSCLC; test: CA209-003 phase 1: nivolumab monotherapy, efficacy (RECIST 1.0, OS, subgroups, PD-L1); assay type: in vivo, human
Method: Objective response rate (ORR) was analyzed according to select patient characteristics (age, gender, Eastern Cooperative Oncology Group performance status [ECOG PS], histology, number of prior therapies, prior tyrosine kinase inhibitor [TKI] therapy, epidermal growth factor receptor [EGFR] and Kirsten rat sarcoma viral oncogene homolog [KRAS] mutational status).
PD-L1 expression in archived tumor samples was measured using the Dako immunohistochemistry (IHC) assay. Positive staining with this assay was defined as tumor membrane staining at any intensity, and was analyzed with cut-off values of 1% and 5% expression to assess PD-L1 positivity (Butte M J, et al.). Tumor PD-L1 expression was evaluated for potential association with clinical endpoints.

nivolumab
Arthralgia, All Gr ([1]; n = 52): 5 (9.6) n (%) | Arthralgia, GR ¾ ([1]; n = 52): 0 n (%) | Constipation, All Gr ([1]; n = 52): 3 (5.8) n (%) | Constipation, GR ¾ ([1]; n = 52): 0 n (%) | Diarrhea, All Gr ([1]; n = 52): 6 (11.5) n (%) | Diarrhea, GR ¾ ([1]; n = 52): 1 (1.9) n (%) | Fatigue, All Gr ([1]; n = 52): 15 (28.8) n (%) | Fatigue, GR ¾ ([1]; n = 52): 0 n (%) | Hypothyriodism, All Gr ([1]; n = 52): 3 (5.8) n (%) | Hypothyriodism, GR ¾ ([1]; n = 52): 0 n (%) | Nausea, All Gr ([1]; n = 52): 7 (13.5) n (%) | Nausea, GR ¾ ([1]; n = 52): 0 n (%) | Pneumonitis, All Gr ([1]; n = 52): 3 (5.8) n (%) | Pneumonitis, GR ¾ ([1]; n = 52): 1 (1.9) n (%) | Pruritus, All Gr ([1]; n = 52): 6 (11.5) n (%) | Pruritus, GR ¾ ([1]; n = 52): 0 n (%) | Rash, All Gr ([1]; n = 52): 10 (19.2) n (%) | Rash, GR ¾ ([1]; n = 52): 2 (3.8) n (%) | Total patients with an event, All Gr ([1]; n = 52): 37 (71.2) n (%) | Total patients with an event, GR ¾ ([1]; n = 52): 10 (19.2) n (%) | Vomiting, All Gr ([1]; n = 52): 3 (5.8) n (%) | Vomiting, GR ¾ ([1]; n = 52): 0 n (%) | Discontinued subjects: Toxicity ([1]; 52 treated): 6 (12%) | mean plateau PD-1 occupancy ([2]; range 59% to 81%): 72% | mean PD-1 occupancy rate ([2]; range 70% to 97%): 85% | Estimated Median DOR ([3]; 1 mg/kg): 63.9 wks | Median OS ([3]; 1 mg/kg): 9.2 mo | Median PFS ([3]; 1 mg/kg): 1.8 mo | ORR ([3]; 1 mg/kg): 3.0% | OS Rate 1-year ([3]; 1 mg/kg): 32% | OS Rate 2-year ([3]; 1 mg/kg): 12% | Estimated Median DOR ([3]; 3 mg/kg): 74.0 wks | Median OS ([3]; 3 mg/kg): 14.9 mo | Median PFS ([3]; 3 mg/kg): 1.9 mo | ORR ([3]; 3 mg/kg): 24% and 24.3% | OS Rate 1-year ([3]; 3 mg/kg): 56% | OS Rate 2-year ([3]; 3 mg/kg): 45% | Estimated Median DOR ([3]; 10 mg/kg): 83.1 wks | Median OS ([3]; 10 mg/kg): 9.2 mo | Median PFS ([3]; 10 mg/kg): 3.7 mo | ORR ([3]; 10 mg/kg): 20.3% | OS Rate 1-year ([3]; 10 mg/kg): 40% | OS Rate 2-year ([3]; 10 mg/kg): 19% | of these, responses ongoing at the time of reporting ([3]; 5 of 6): 83% | responders who discontinued for reasons other than disease progression and responded for >30 weeks after the last dose ([3]; 6/16): 38% | Responses ongoing at the time of analysis ([3]; 10/22): 45% | patients with ORs with response at first assessment (8 weeks) ([3]; 11/22): 50% | Estimated Median DOR ([3]; All doses): 74 wks and 74.0 wks | Median OS ([3]; All doses): 9.9 mo | Median PFS ([3]; All doses): 2.3 mo | ORR ([3]; All doses): 17% | OS Rate 1-year ([3]; All doses): 42% | OS Rate 2-year ([3]; All doses): 24% | Median OS (95% CI) ([3]; Non-squamous, 1 mg/kg): 9.9 (5.3, 22.5) mo | ORR ([3]; Non-squamous, 1 mg/kg): 5.6 (1/18) % (n/N) | OS Rate 1-year (95% CI) ([3]; Non-squamous, 1 mg/kg): 36 (15, 58) | OS Rate 2-year (95% CI) ([3]; Non-squamous, 1 mg/kg): 15 (3, 36) | Median OS (95% CI) ([3]; Non-squamous, 3 mg/kg): 18.2 (5.2, NE) mo | ORR ([3]; Non-squamous, 3 mg/kg): 26.3 (5/19) % (n/N) | OS Rate 1-year (95% CI) ([3]; Non-squamous, 3 mg/kg): 62 (37, 80) | OS Rate 2-year (95% CI) ([3]; Non-squamous, 3 mg/kg): 48 (22, 69) | Median OS (95% CI) ([3]; Non-squamous, 10 mg/kg): 7.4 (4.5, 12.4) mo | ORR ([3]; Non-squamous, 10 mg/kg): 18.9 (7/37) % (n/N) | OS Rate 1-year (95% CI) ([3]; Non-squamous, 10 mg/kg): 36 (21, 52) | OS Rate 2-year (95% CI) ([3]; Non-squamous, 10 mg/kg): 15 (6, 29) | Median OS (95% CI) ([3]; Non-squamous, All doses): 10.1 mo and 10.1 (5.7, 13.7) mo | ORR ([3]; Non-squamous, All doses): 17.6 (13/74) % (n/N) | OS Rate 1-year (95% CI) ([3]; Non-squamous, All doses): 43 (32, 54) | OS Rate 2-year (95% CI) ([3]; Non-squamous, All doses): 23 (13, 34) | ORR ([3]; PD-L1+ (5% cut-off), Non-squamous): 17 (3/18) % (n/N) | ORR ([3]; PD-L1+ (5% cut-off), Squamous): 13 (2/15) % (n/N) | Median OS ([3]; PD-L1+ tumors): 7.8 months | Median PFS ([3]; PD-L1+ tumors): 3.6 months | ORR ([3]; PD-L1 cut-off 1%, Negative): 17 (5/30) % (n/N) | ORR ([3]; PD-L1 cut-off 1%, Positive): 13 (5/38) % (n/N) | ORR ([3]; PD-L1 cut-off 5%, Negative, all patients): 14 (5/35) % (n/N) | ORR ([3]; PD-L1 cut-off 5%, Positive, all patients): 15 (5/33) % (n/N) | ORR ([3]; PD-L1− (5% cut-off), Non-squamous): 10 (2/21) % (n/N) | ORR ([3]; PD-L1− (5% cut-off), Squamous): 21 (3/14) % (n/N) | Median OS ([3]; PD-L1− tumors): 10.5 months | Median PFS ([3]; PD-L1− tumors): 1.8 months | Median OS (95% CI) ([3]; Squamous, 1 mg/kg): 8.0 (2.4, 13.3) mo | ORR ([3]; Squamous, 1 mg/kg): 0 (0/15) % (n/N) | OS Rate 1-year (95% CI) ([3]; Squamous, 1 mg/kg): 27 (7, 51) | OS Rate 2-year (95% CI) ([3]; Squamous, 1 mg/kg): 9 (1, 32) | Median OS (95% CI) ([3]; Squamous, 3 mg/kg): 9.5 (5.3, NE) mo | ORR ([3]; Squamous, 3 mg/kg): 22.2 (4/18) % (n/N) | OS Rate 1-year (95% CI) ([3]; Squamous, 3 mg/kg): 49 (23, 71) | OS Rate 2-year (95% CI) ([3]; Squamous, 3 mg/kg): 41 (17, 64) | Median OS (95% CI) ([3]; Squamous, 10 mg/kg): 10.5 (4.9, 16.7) mo | ORR ([3]; Squamous, 10 mg/kg): 23.8 (5/21) % (n/N) | OS Rate 1-year (95% CI) ([3]; Squamous, 10 mg/kg): 43 (22, 62) | OS Rate 2-year (95% CI) ([3]; Squamous, 10 mg/kg): 22 (7, 42) | Median OS (95% CI) ([3]; Squamous, All doses): 9.2 mo and 9.2 (7.3, 12.5) mo | ORR ([3]; Squamous, All doses): 16.7 (9/54) % (n/N) | OS Rate 1-year (95% CI) ([3]; Squamous, All doses): 40 (27, 54) | OS Rate 2-year (95% CI) ([3]; Squamous, All doses): 24 (13, 37) | patients maintaining SD for ≧48 weeks ([3]; across doses): 5%
